The text below walks through data of US20060270631A1, “Methods for the treatment and prevention of angiogenic diseases” (priority 2005, published 2006).

Test [1] concerns endogenous SK. Kind of test: Cellular S1P formation assay in HUVECs. The format is cell-based, human. The settings on record: read-out: drug concentration that decreases S1P formation by 50%. The procedure:
FIG. 2. Inhibition of S1P production in HUVECs by SK inhibitors. […] After 15 minutes, cells were lysed and extracted with chloroform: methanol, and the amounts of [^3H]sphingosine in the organic phase and [^3H]S1P in the aqueous phase were then determined. Values represent the mean±sd SK activity.
Cellular S1P formation assay. Cells were grown to confluency in 24-well tissue culture plates and serum-starved for 24 hours as described above. Cells were then treated with 1% DMSO (as the drug vehicle), 20 μM dimethylsphingosine, or the indicated concentration of an SK inhibitor for 4 hours. The cells were then incubated with [^3H]sphingosine for 15 minutes, and the formation of [^3H]S1P was measured as previously described (French et al., Cancer Res 63: 5962 (2003)). […] [^3 H]Sphingosine was then added for 15 minutes, and its conversion to [^3H]S1P was measured as indicated above.
(§1) A cell-based assay in which the phosphorylation of exogenously added [^3H]sphingosine to [^3H]S1P by endogenous SK can be quantified (French et al., Cancer Res 63: 5962 (2003)) was used to evaluate the effects of test compounds on the activity of SK in intact cells. […] Similarly, the enzymatic activity of SK in bovine RECs, and its sensitivity to SK inhibitors were assessed. […]

The test system of test [2] is endogenous SK. Briefly: Cellular S1P formation assay in human chondrocytes (HC). The following applies: HCs; read-out: drug concentration that decreases S1P formation by 50%. The format is cell-based. Here is the method: Cellular S1P formation assay. Cells were grown to confluency in 24-well tissue culture plates and serum-starved for 24 hours as described above. Cells were then treated with 1% DMSO (as the drug vehicle), 20 μM dimethylsphingosine, or the indicated concentration of an SK inhibitor for 4 hours. The cells were then incubated with [^3H]sphingosine for 15 minutes, and the formation of [^3H]S1P was measured as previously described (French et al., Cancer Res 63: 5962 (2003)). In some assays, the cells were serum-starved for 24 hours and then treated with VEGF (50 ng/mL) alone or in the presence of an SK inhibitor for an additional 12 hours. [^3 H]Sphingosine was then added for 15 minutes, and its conversion to [^3H]S1P was measured as indicated above.
as §1, with “cells. In this assay, cells are incubated with [^3 H]sphingosine for an appropriate period of time, and then [^3H]sphingosine and [^3H]S1P (formed by endogenous SK activity) are separated by extraction and levels of both species are determined by scintillation counting.” for “cells.”

Test [3] deals with human RECs. Kind of test: VEGF-stimulated proliferation of human RECs ([3H]thymidine incorporation). The test is classed as cell-based. The following applies: VEGF 50 ng/mL, 12 hours + 2 hours [3H]thymidine, serum-starved human RECs. The procedure:
FIG. 6. Effects of Compound II on VEGF-stimulated proliferation of RECs. Human RECs were serum-starved for 24 hours and then left untreated or incubated with VEGF (50 ng/mL) in the presence of the indicated concentration (in μM) of Compound II for 12 hours. [3H]Thymidine was then added and the cultures were incubated an additional 2 hours. The amount of [^3H]thymidine incorporated into DNA was determined. Values represent the mean±SD of duplicate samples in a typical experiment.
Cell proliferation assay. Cells were grown to confluence in 24-well tissue culture plates and serum-starved overnight as described above. Cells were then treated with 50 ng/mL of VEGF and varying concentrations of Compound II for 12 hours. At that time, 16 μCi of [3H]thymidine was added to each well, and the cultures were incubated for an additional 2 hours. The media was then removed by aspiration, the cells were washed twice with cold PBS, and 0.8 mL of ice-cold 10% trichloroacetic acid was added to each well. […] The samples were incubated at 37° C. for 30 minutes, scraped into scintillation vials, and the amount of ^3H in the recovered genomic DNA was quantified by scintillation counting.
We next evaluated the effects of VEGF on the proliferation of human RECs by measuring the effects of the growth factor of the incorporation of [^3H]thymidine into the DNA of serum-starved cells. […]
A general note: Dividing cells build labelled thymidine or BrdU into new DNA.

The subject of test [4] is phosphorylated ERK1/2. Briefly: Western analysis of phosphorylated ERK1/2 in human RECs. The test is classed as cell-based. The procedure: (§2) Western Blotting. Protein concentrations were determined using the fluorescamine assay (Bohlen et al., Arch Biochem Biophys 155: 213 (1973)) with bovine serum albumin as the standard. Samples were normalized for equal amounts of protein per lane (100 μg), separated by sodium dodecylsulfate-polyacrylamide gel electrophoresis and electrotransferred to nitrocellulose membranes. For SK analyses, membranes were blocked with 5% nonfat milk in Tris-buffered saline with Tween 20 and probed with an anti-SK rabbit polyclonal antibody at a 1:50 dilution, washed and incubated with […] antibodies conjugated to horseradish peroxidase (1 hr in 3% nonfat milk). The blots were then washed 4 times for 5 minutes at room temperature, developed with SuperSignal development reagents (Pierce Biotechnology, Inc., Rockford, Ill.) and exposed to Kodak XAR film. […]
(§3) Western analyses were conducted to evaluate the effects of Compound II on signaling proteins known to be regulated in endothelial cells by VEGF or TNFα. […] Cell lysates from cells treated with VEGF for 15 minutes were then analyzed for levels of phosphorylated ERK1/2 as a measure of signaling through the Ras-mediated proliferation pathway. Samples from cells treated with TNFα were analyzed for activation of NFκB, i.e. phosphoNFκB, and the down-stream proteins, cyclooxygenase-2 (Cox-2), E-selectin and VCAM-1. […]

Test [5] relates to E-selectin and VCAM-1. Briefly: Western analysis of TNFα-induced E-selectin and VCAM-1 in human RECs. The test is classed as cell-based. The settings on record: TNFα 100 ng/mL, 6 hours. Here is the method: as §2, §3

`Oc1ccc(Nc2nc(-c3ccc(Cl)cc3)cs2)cc1` [Compound II]: the IC50 in test [1] amounted to 200 nM. Further, in test [2], the IC50 was 360 nM. In addition, the “concentration blocking the mitogenic response to VEGF” value in test [3] was at least 1.3 µM. In addition, the “VEGF-promoted phosphorylation of ERK1/2” value in test [4] (VEGF 50 ng/mL, 15 minutes) is reported as “completely abrogated”. Also, in test [4] (human RECs, no VEGF), the “residual pERK1/2 in serum-starved cells” value is listed as “eliminated”. Moreover, in test [5], the “TNFα-induced up-regulation of E-selectin expression” value was “completely blocked” and the “TNFα-induced up-regulation of VCAM-1 expression” value is listed as “completely blocked”.
